Test results published in US20060069132A1, “Azolecarboxamide herbicides” (priority 2004, published 2006).

Assays:
barnyardgrass [1] = experiment: Test B pre-/postemergence herbicide test; assay type: in vivo, Echinochloa crus-galli; details: for Barnyardgrass plant response rating: postemergence, scale 0 (no effect) to 100 (complete control)
Outline: (§1)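 Herbicidal effect was judged by eye on a 0–100 scale after plants stood 13 to 15 days in the greenhouse following pre- or postemergence treatment with surfactant-containing formulations.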

Surinam grass = experiment: Test B pre-/postemergence herbicide test; assay type: in vivo, Urochloa decumbens; details: for Surinam Grass plant response rating: postemergence, scale 0 (no effect) to 100 (complete control)
Outline: (§2)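 Flooded paddy rice and barnyardgrass were treated at the 2-leaf stage; upland plantings received compound either on sown seed or on 1- to 4-leaf seedlings. All were kept 13–15 days in a greenhouse and scored visually, 0–100, relative to untreated plants.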

cocklebur = experiment: Test B pre-/postemergence herbicide test; assay type: in vivo, Xanthium strumarium; details: for Cocklebur plant response rating: postemergence, scale 0 (no effect) to 100 (complete control)
Outline: as §1

corn = experiment: Test B pre-/postemergence herbicide test; assay type: in vivo, Zea mays; details: for Corn plant response rating: postemergence, scale 0 (no effect) to 100 (complete control)
Outline: as §2

large crabgrass = experiment: Test B pre-/postemergence herbicide test; assay type: in vivo, Digitaria sanguinalis; details: for Crabgrass, Large plant response rating: postemergence, scale 0 (no effect) to 100 (complete control)
Outline: as §2

giant foxtail = experiment: Test B pre-/postemergence herbicide test; assay type: in vivo, Setaria faberi; details: for Foxtail, Giant plant response rating: postemergence, scale 0 (no effect) to 100 (complete control)
Outline: as §2

lambsquarters = experiment: Test B pre-/postemergence herbicide test; assay type: in vivo, Chenopodium album; details: for Lambsquarters plant response rating: postemergence, scale 0 (no effect) to 100 (complete control)
Outline: as §2

morningglory = experiment: Test B pre-/postemergence herbicide test; assay type: in vivo, Ipomoea coccinea; details: for Morningglory plant response rating: postemergence, scale 0 (no effect) to 100 (complete control)
Outline: as §1

pigweed = experiment: Test B pre-/postemergence herbicide test; assay type: in vivo, Amaranthus retroflexus; details: for Pigweed plant response rating: postemergence, scale 0 (no effect) to 100 (complete control)
Outline: as §2

rice [2] = experiment: Test B pre-/postemergence herbicide test; assay type: in vivo, Oryza sativa; details: 0 = no effect, 100 = complete control, preemergence
Outline: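 Evaluation is visual, comparing treated with control plants on a scale where 0 means no effect and 100 means full control. Treatments were preemergence, or postemergence on seedlings 2–18 cm tall, and held 13–15 days in the greenhouse.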

velvetleaf = experiment: Test B pre-/postemergence herbicide test; assay type: in vivo, Abutilon theophrasti; details: for Velvetleaf plant response rating: postemergence, scale 0 (no effect) to 100 (complete control)
Outline: as §2

blackgrass = experiment: Test B postemergence herbicide test; assay type: in vivo, Alopecurus myosuroides; details: postemergence, visual rating, scale 0 (no effect) to 100 (complete control)
Outline: (§3)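 Treated at 2-leaf (paddy) or 1–4-leaf, 2–18 cm (postemergence); greenhouse 13–15 d; visual score vs control, 0 none to 100 complete control; dash = not tested.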

wheat = experiment: Test B postemergence herbicide test; assay type: in vivo, Triticum aestivum; set-up: key to Wheat plant response rating: 0 = no effect, 100 = complete control; details: postemergence, visual rating, scale 0 (no effect) to 100 (complete control)
Outline: (§4)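 Plants grow to 1- to 4-leaf stage (2–18 cm) for postemergence spraying, or to 2-leaf stage for the paddy test. Formulated compound is applied. Greenhouse holding lasts 13–15 days. Response is scored visually relative to controls, 0 no effect to 100 complete control; a dash means no result.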

wild oat = experiment: Test B postemergence herbicide test; assay type: in vivo, Avena fatua; details: postemergence, visual rating, scale 0 (no effect) to 100 (complete control)
Outline: as §4

rice [3] = experiment: Test B flooded paddy test; assay type: in vivo, Oryza sativa; details: 1000 g ai/ha, scale 0 to 100 (0 no effect, 100 complete control)
Outline: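 After treating 2-leaf paddy plants or 2–18 cm postemergence plants (1 to 4 leaves) with formulated chemical, researchers kept them in a greenhouse for 13–15 days. Effects were judged visually versus controls: 0 indicates none, 100 total control.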

[4] = test system: small flower umbrella sedge; experiment: Test B flooded paddy test; assay type: in vivo, Cyperus difformis; details: 1000 g ai/ha, scale 0 to 100 (0 no effect, 100 complete control)
Outline: as §3

ducksalad [5] = experiment: Test B flooded paddy test; assay type: in vivo, Heteranthera limosa; details: 1000 g ai/ha, scale 0 to 100 (0 no effect, 100 complete control)
Outline: as §3

barnyardgrass [6] = experiment: Test B flooded paddy test; assay type: in vivo, Echinochloa crus-galli; details: 1000 g ai/ha, scale 0 to 100 (0 no effect, 100 complete control)
Outline: as §3

rice [7] = experiment: Test C flooded paddy test; assay type: in vivo, Oryza sativa
Outline: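 Plants were grown to the 1- to 4-leaf stage (2–18 cm) and then treated postemergence, or grown to the 2-leaf stage for the flooded paddy test. They were held in a greenhouse for 12 to 14 days and then scored by eye against controls, where 0 is no effect and 100 is complete control.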

[8] = test system: smallflower umbrella sedge; experiment: Test C flooded paddy test; assay type: in vivo, Cyperus difformis
ducksalad [9] = experiment: Test C flooded paddy test; assay type: in vivo, Heteranthera limosa
barnyardgrass [10] = experiment: Test C flooded paddy test; assay type: in vivo, Echinochloa crus-galli
Outline: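 Visual rating, 0 (no effect) to 100 (complete control), vs. controls at 12–14 d in greenhouse. Postemergence: 1–4-leaf plants, 2–18 cm. Paddy: flooded, barnyardgrass at 2-leaf stage.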

[11] = 125 g ai/ha, 0 = no effect, 100 = complete control, preemergence
[12] = 500 g ai/ha, visual rating, 0 = no effect, 100 = complete control, preemergence
[13] = 62 g ai/ha, scale 0 to 100 (0 no effect, 100 complete control)
[14] = 125 g ai/ha, scale 0 to 100 (0 no effect, 100 complete control)
[15] = 250 g ai/ha, scale of 0 to 100, 0 is no effect, 100 is complete control
[16] = 500 g ai/ha, visual rating after 12 to 14 days, scale 0 to 100 (0 no effect, 100 complete control)

SMILES: CCc1nc(C(C)(C)C)sc1C(=O)Nc1cc(C(=O)N(C)CC)ccc1F [Compound 231]
- Barnyardgrass plant response rating (0 to 100 scale) (barnyardgrass [1]; [11]): 50
- Plant response rating, Barnyardgrass (barnyardgrass [1]; [12]): 80
- Barnyardgrass plant response rating (barnyardgrass [1]; 125 g ai/ha, visual rating): 10
- Barnyardgrass plant response rating (barnyardgrass [1]; 500 g ai/ha, visual rating): 40
- Surinam Grass plant response rating (0 to 100 scale) (Surinam grass; [11]): 20
- Plant response rating, Surinam Grass (Surinam grass; [12]): 60
- Surinam Grass plant response rating (Surinam grass; 125 g ai/ha, visual rating): 10
- Surinam Grass plant response rating (Surinam grass; 500 g ai/ha, visual rating): 30
- Cocklebur plant response rating (0 to 100 scale) (cocklebur; [11]): 0
- Plant response rating, Cocklebur (cocklebur; [12]): 30
- Cocklebur plant response rating (cocklebur; 125 g ai/ha, visual rating): 10
- Cocklebur plant response rating (cocklebur; 500 g ai/ha, visual rating): 40
- Corn plant response rating (0 to 100 scale) (corn; [11]): 0
- Plant response rating, Corn (corn; [12]): 50
- Corn plant response rating (corn; 125 g ai/ha, visual rating): 10
- Corn plant response rating (corn; 500 g ai/ha, visual rating): 20
- Crabgrass, Large plant response rating (0 to 100 scale) (large crabgrass; [11]): 30
- Plant response rating, Crabgrass, Large (large crabgrass; [12]): 90
- Crabgrass, Large plant response rating (large crabgrass; 125 g ai/ha, visual rating): 20
- Crabgrass, Large plant response rating (large crabgrass; 500 g ai/ha, visual rating): 20
- Foxtail, Giant plant response rating (0 to 100 scale) (giant foxtail; [11]): 60
- Plant response rating, Foxtail, Giant (giant foxtail; [12]): 90
- Foxtail, Giant plant response rating (giant foxtail; 125 g ai/ha, visual rating): 20
- Foxtail, Giant plant response rating (giant foxtail; 500 g ai/ha, visual rating): 30
- Lambsquarters plant response rating (0 to 100 scale) (lambsquarters; [11]): 80
- Plant response rating, Lambsquarters (lambsquarters; [12]): 100
- Lambsquarters plant response rating (lambsquarters; 125 g ai/ha, visual rating): 60
- Lambsquarters plant response rating (lambsquarters; 500 g ai/ha, visual rating): 70
- Morningglory plant response rating (0 to 100 scale) (morningglory; [11]): 10
- Plant response rating, Morningglory (morningglory; [12]): 10
- Morningglory plant response rating (morningglory; 125 g ai/ha, visual rating): 20
- Morningglory plant response rating (morningglory; 500 g ai/ha, visual rating): 70
- Pigweed plant response rating (0 to 100 scale) (pigweed; [11]): 60
- Plant response rating, Pigweed (pigweed; [12]): 100
- Pigweed plant response rating (pigweed; 125 g ai/ha, visual rating): 50
- Pigweed plant response rating (pigweed; 500 g ai/ha, visual rating): 70
- Rice plant response rating (0 to 100 scale) (rice [2]; 125 g ai/ha): 20
- Plant response rating, Rice (rice [2]; 500 g ai/ha, visual rating): 50
- Velvetleaf plant response rating (0 to 100 scale) (velvetleaf; [11]): 30
- Plant response rating, Velvetleaf (velvetleaf; [12]): 90
- Velvetleaf plant response rating (velvetleaf; 125 g ai/ha, visual rating): 30
- Velvetleaf plant response rating (velvetleaf; 500 g ai/ha, visual rating): 50
- Blackgrass plant response rating (blackgrass; 125 g ai/ha): 20
- Blackgrass plant response rating (blackgrass; 500 g ai/ha): 30
- Wheat plant response rating (wheat; 125 g ai/ha): 20
- Wheat plant response rating (wheat; 500 g ai/ha): 40
- Oat, Wild plant response rating (wild oat; 125 g ai/ha): 20
- Oat, Wild plant response rating (wild oat; 500 g ai/ha): 40
- Rice plant response rating (rice [3]): 80
- Sedge, Umbrella plant response rating [4]: 90
- Ducksalad plant response rating (ducksalad [5]): 90
- Barnyardgrass plant response rating (barnyardgrass [6]): 80
- Rice plant response rating (rice [7]; [13]): 30
- Rice plant response rating (rice [7]; [14]): 55
- Rice plant response rating (rice [7]; [15]): 75
- Plant response rating, Rice (rice [7]; [16]): 80
- Sedge, Umbrella plant response rating [8, 13]: 10
- Sedge, Umbrella plant response rating [8, 14]: 55
- Sedge, Umbrella plant response rating [8, 15]: 65
- Plant response rating, Sedge, Umbrella [8, 16]: 75
- Ducksalad plant response rating (ducksalad [9]; [13]): 10
- Ducksalad plant response rating (ducksalad [9]; [14]): 60
- Ducksalad plant response rating (ducksalad [9]; [15]): 70
- Plant response rating, Ducksalad (ducksalad [9]; [16]): 80
- Barnyardgrass plant response rating (barnyardgrass [10]; [13]): 40
- Barnyardgrass plant response rating (barnyardgrass [10]; [14]): 45
- Barnyardgrass plant response rating (barnyardgrass [10]; [15]): 75
- Plant response rating, Barnyardgrass (barnyardgrass [10]; [16]): 80
